The text below walks through data of patent US5019574A, “3,4-diaminoquinoline and 3,4-diamino-5,6,7,8-tetrahydroquinoline compounds useful for improving psychoneural function” (Chugai Seiyaku Kabushiki Kaisha, priority 1988, dated 1991).

Where two headings read alike, the source gives them in different places.

As a reminder, the inhibition is the relative decrease from the control value, in per cent.

In one assay the target is T1, acetylcholinesterase (Electrophorus electricus, UniProt O42275).
T1 construct: purchased Sigma C-2888
T1 sequence (O42275 24-633): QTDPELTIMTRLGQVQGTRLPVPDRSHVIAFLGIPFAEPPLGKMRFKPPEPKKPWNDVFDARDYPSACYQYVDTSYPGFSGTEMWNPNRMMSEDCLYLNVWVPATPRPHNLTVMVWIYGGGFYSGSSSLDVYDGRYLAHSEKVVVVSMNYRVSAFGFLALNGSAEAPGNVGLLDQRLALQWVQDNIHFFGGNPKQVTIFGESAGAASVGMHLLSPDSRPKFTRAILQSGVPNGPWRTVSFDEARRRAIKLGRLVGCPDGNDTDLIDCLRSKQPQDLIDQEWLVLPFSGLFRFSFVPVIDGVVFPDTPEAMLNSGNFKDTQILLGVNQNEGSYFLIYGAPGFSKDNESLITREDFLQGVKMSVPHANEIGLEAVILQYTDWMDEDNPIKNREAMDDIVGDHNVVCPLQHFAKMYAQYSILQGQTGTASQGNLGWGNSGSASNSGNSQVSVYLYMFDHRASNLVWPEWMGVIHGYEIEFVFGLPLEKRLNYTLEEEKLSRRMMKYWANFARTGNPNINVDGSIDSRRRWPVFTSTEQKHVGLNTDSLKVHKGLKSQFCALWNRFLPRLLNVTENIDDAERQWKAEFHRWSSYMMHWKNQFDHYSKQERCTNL
Description: Inhibition of acetylcholinesterase activity. The class given is biochemical. Conditions: activity without drug compound taken as 100, average of three measurements, read-out: Inhibition rate (%). Here is the method:
Inhibition of Acetylcholinesterase Activity:
Acetylcholinesterase activity was assayed in accordance with the method of S. H. Sterri and F. Fonnum described in European Journal of Biochemistry, 91: 215-222, 1978. The method consisted of incubating 0.5 μU of authentic acetylcholinesterase ([…]) (Sigma, No. C-2888) at 30° C. for 15 minutes in a 20 mM sodium phosphate buffer (pH 7.4). with 1.3 mM [1^-14 C] acetylcholine (0.025 μCi) being used as a substrate. Selected compounds of the general formula (I) were added at a concentration of 1 μM to the reaction solution and the resulting effect on enzymatic activity was evaluated.
The result was obtained as the average of three measurements and shown in Table 2 in terms of percentage, with the activity for the case where no drum compound was added being taken as 100.

Assay [1] deals with norepinephrine uptake into the synaptosomes. In words: Inhibition of catecholamine uptake: 3H-norepinephrine uptake into synaptosomes. The class given is biochemical, rats (F344/Crj). Conditions: 1 μM; norepinephrine uptake in the absence of drug compounds taken as 100. As for the experimental part: (§1) Inhibition of Catecholamine Uptake:
(§2) A crude synaptosomal fraction (P2) was obtained from the brain of rats (F344/Crj) in the usual manner. In accordance with the method of S. H. Snyder and J. T. Coyle described in Journal of Pharmacology and Experimental Therapeutics, 165(1), 78-86, 1969, the fraction P2 was incubated in a Krebs-Henseleit bicarbonate buffer solution at 37° C. for 10 minutes together with 50 nM ^3 H-norepinephrine (0.25 jμCi). Thereafter, the uptake of norepinephrine into the synaptosomes was measured by the filtration method. Selected compounds were added at a concentration of 1 μM to the solution being incubated and their effect on norepinephrine uptake was examined. The control drug was tetrahydroaminoacridine (THA).
The results are shown in Table 3 in terms of percentage, with norepinephrine uptake in the absence of drug compounds being taken as 100.

In the next assay the test system is male ICR mice. Description: Improvement of memory and learning ability tested by passive avoidance response. The class given is in vivo. To be noted: dose 10 (μg/kg i.p.); retention trial 24 hours after acquisition trial. As for the experimental part: Improvement of memory and Learning Ability Tested by Passive Avoidance Response:
Four groups of male ICR mice (10-14 weeks old). each consisting of 10 animals, were used in the experiment. Except for one control group, the mice were administered with selected compounds of the present invention. The experimental chamber consisted of a light and a dark compartment and an electric current shock source was connected to the floor grid in the dark compartment.
The experimental sessions consisted of acclimation. acquisition, and retention trials and were performed for […], one trial per day. In the acclimation trial, animals were placed in the light compartment of the experimental chamber and left there for 5 minutes to acclimate them to the apparatus. In the acquisition trial which was conducted on the 2nd day, the animals were placed in the light compartment and when they entered the dark compartment, they were confined and given an a.c. electric shock (1 mA) through the floor grid for 10 seconds. In the retention trial which was conducted 24 hours after the acquisition trial, the animals were placed in the light compartment of the chamber and the step-through latency (i.e., the time required for the animals to enter the dark compartment) was measured. A physiological saline solution was administered at the acclimation trial to all of the animals. At the acquisition trial, selected compounds were administered in amounts of 10 μg/kg of body weight (1 ml/100 g). The control group was administered the same amount of physiological saline solution 60 minutes before the start of the trial. All administrations were intraperitoneal.

Assay [2] deals with uptake of dopamine into synaptosomes. In words: Inhibition of catecholamine uptake: 3H-dopamine uptake into synaptosomes. The class given is biochemical, rats (F344/Crj). To be noted: 1 μM; dopamine uptake in the absence of drugs taken as 100. Here is the method: as §2, §1
The uptake of dopamine into synaptosomes was measured by repeating the procedure of Test Example 2 except that 50 nM ^3 H-norepinephrine (0.25 μCi) was replaced by 15 nM ^3 H-dopamine (0.68 μCi). The control drug was tetrahydroaminoacridine (THA). The result is shown in Table 5 in terms of percentage, with dopamine uptake in the absence of drugs being taken as 100.

For a further assay, the target named is T2, MAO-A (Rattus norvegicus, UniProt P21396).
T2 construct: A crude synaptosomal fraction (P2) was obtained from the brain of rats (F344/Crj); from tissue; host or cells: rat (F344/Crj) brain, crude synaptosomal fraction (P2), homogenized
T2 sequence (P21396 1-526): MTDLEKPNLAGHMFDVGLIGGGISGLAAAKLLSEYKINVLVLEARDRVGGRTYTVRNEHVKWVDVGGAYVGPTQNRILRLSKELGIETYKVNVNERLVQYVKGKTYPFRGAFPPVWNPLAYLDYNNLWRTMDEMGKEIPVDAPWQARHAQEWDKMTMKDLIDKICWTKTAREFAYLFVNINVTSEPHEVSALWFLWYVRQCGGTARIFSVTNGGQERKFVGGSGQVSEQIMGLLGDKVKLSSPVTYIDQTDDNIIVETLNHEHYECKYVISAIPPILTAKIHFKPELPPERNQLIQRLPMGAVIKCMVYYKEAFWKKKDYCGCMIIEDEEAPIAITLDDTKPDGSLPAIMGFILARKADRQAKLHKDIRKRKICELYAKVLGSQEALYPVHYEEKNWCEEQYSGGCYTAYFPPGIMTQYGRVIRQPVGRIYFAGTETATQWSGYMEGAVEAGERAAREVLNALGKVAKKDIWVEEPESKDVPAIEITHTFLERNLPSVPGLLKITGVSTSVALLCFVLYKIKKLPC
Description: Inhibition of monoamine oxidase: MAO-A. The class given is biochemical, rats (F344/Crj). Conditions: read-out: Inhibition rate (%) MAO-A. Here is the method:
(§3) Inhibition of Monoamine Oxidase (MAO):
(§4) A crude synaptosomal fraction (P2) was obtained from the brain of rats (F344/Crj) in the usual manner and homogenized to perform MAO activity measurements. The substrate was 12 μM [^14 C]-serotonin in the case of MAO-A activity measurements, and 5 μM [^14 C]-2-phenethylamine in the case of MAO-B activity measurements. In accordance with the method of R. J. Wurtman and J. Axelrod described in Biochemical Pharmacol. 12, […], 1963, the homogenates were incubated in 100 mM phosphate buffer (pH 7.4) at 37° C. for 20 minutes and the effect of adding selected compounds at a concentration of 10 μM was evaluated.

A further assay deals with T3, MAO-B (Rattus norvegicus, UniProt P19643).
T3 construct: A crude synaptosomal fraction (P2) was obtained from the brain of rats (F344/Crj); from tissue; host or cells: rat (F344/Crj) brain, crude synaptosomal fraction (P2), homogenized
T3 sequence (P19643 1-520): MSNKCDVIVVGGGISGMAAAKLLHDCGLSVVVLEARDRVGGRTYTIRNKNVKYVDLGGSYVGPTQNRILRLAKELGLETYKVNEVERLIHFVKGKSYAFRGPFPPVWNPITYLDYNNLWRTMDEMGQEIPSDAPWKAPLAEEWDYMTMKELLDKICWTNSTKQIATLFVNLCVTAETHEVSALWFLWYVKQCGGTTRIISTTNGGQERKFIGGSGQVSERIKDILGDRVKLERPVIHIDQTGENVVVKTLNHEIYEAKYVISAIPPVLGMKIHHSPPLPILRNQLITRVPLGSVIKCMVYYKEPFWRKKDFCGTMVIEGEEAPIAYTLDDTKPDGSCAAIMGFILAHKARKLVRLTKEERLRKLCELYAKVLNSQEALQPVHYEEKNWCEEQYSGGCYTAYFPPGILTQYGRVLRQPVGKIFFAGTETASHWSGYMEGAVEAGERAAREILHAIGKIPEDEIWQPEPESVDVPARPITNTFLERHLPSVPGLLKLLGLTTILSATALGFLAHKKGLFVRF
In words: Inhibition of monoamine oxidase: MAO-B. Conditions: read-out: Inhibition rate (%) MAO-B. The class given is biochemical, rats (F344/Crj). Here is the method: as §3, §4

The subject of the next assay is male rats (F344). It counts as in vivo. Conditions: p<0.05, n=6, AF64AP-treated rats.
Setting [3] is: 10 μM, 12 μM [14C]-serotonin substrate, None = 100.
Where [4] appears, read: 10 μM, 5 μM [14C]-2-phenethylamine substrate, None = 100.

With `Nc1c(N2CCCCC2)c(C2CCCCC2=O)nc2ccccc12` (stereo not shown) [Compound 7, 4-amino-3-piperidino-2-(2'-oxocyclohexyl)quinoline], the inhibition at 1 µM at acetylcholinesterase was found to be 38.1%. Moreover, the “Inhibition rate (%)” value in assay [1] was 79.0%; in assay [2] it was 86.4%. Besides, in the assay with male ICR mice, the “Step through latency” value was found to be 104.1 ± 28.5 s. For the same molecule, the inhibition at 10 µM at MAO-A (setting [3]) was 58.7%; on MAO-B (setting [4]), 87.5%. For the same molecule, the “number of correct responses vs vehicle control” value in the assay with male rats (F344) (10 mg/kg orally) and in the assay on male rats (F344) (30 mg/kg orally) was “statistically significant increase in the number of correct responses” throughout.
For `Nc1c2c(nc(C3CCCCC3O)c1N1CCCCC1)CCCC2` (stereo not shown) [Compound 9], the inhibition at 1 µM at acetylcholinesterase is 38.8%. Also, the figures for the “Inhibition rate (%)” value in assay [1] and in assay [2] were 69.4% and 78.6%, respectively. In addition, in the assay with male ICR mice, the “Step through latency” value was found to be 54.4 ± 7.2 s. Further, the inhibition at 10 µM at MAO-A (setting [3]) stood at 59.4%; at MAO-B (setting [4]), 89.4%.
Turning to `Nc1ccnc(C2CCCCC2=O)c1N1CCOCC1` (stereo not shown) [Compound 49], in assay [2], the “Inhibition rate (%)” value worked out at 67.5%. Also, the inhibition at 10 µM at MAO-A (setting [3]) is 54.5%; at MAO-B (setting [4]), 71.2%.
Consider `CCNc1c(N2CCOCC2)nc2ccccc2c1N` [Compound 52, 4-amino-3-ethylamino-2-morpholinoquinoline], for which the figures for the “Inhibition rate (%)” value in assay [1] and in assay [2] were 79.8% and 57.8%, respectively. Also, the inhibition at 10 µM turned out to be 0% at MAO-A (setting [3]) and 63% on MAO-B (setting [4]).
Regarding `Nc1c2c(nc3ccccc13)CCCC2` [control, tetrahydroaminoacridine, reference compound], the figures for the inhibition at 10 µM on MAO-A and on MAO-B were 60.8% and 90.3%, respectively.
For `Nc1c(N2CCCCC2)cnc2ccccc12` [drawing 149], the inhibition at 10 µM at MAO-A (setting [3]) was 44.1%; on MAO-B (setting [4]), 82.9%.
